Assay results reported in the NIST ThermoML archive (doi:10.1016/j.jct.2015.02.011).

Experiment: refractive index (Na D-line) (dimensionless); xn = mol fraction of the nth substance listed
Details: 100.7 kPa, Liquid, Standard Abbe refractometry

CCCCCCn1cc[n+](C)c1.F[P-](F)(F)(F)(F)F [1-hexyl-3-methylimidazolium hexafluorophosphate] + C1CCOC1
refractive index
Details	x1 = 0.1036	x1 = 0.2002	x1 = 0.2868	x1 = 0.4134	x1 = 0.5222	x1 = 0.6239	x1 = 0.6951	x1 = 0.7978	x1 = 0.8953	x1 = 1
293.15 K	1.416	1.41971	1.42081	1.42058	1.41962	1.41895	1.41874	1.41868	1.41858	1.41958
298.15 K	1.41392	1.41772	1.41878	1.41884	1.41828	1.41755	1.41759	1.41752	1.41756	1.41832
303.15 K	1.41184	1.41573	1.41707	1.4171	1.41694	1.41615	1.41644	1.41636	1.41654	1.41692
308.15 K	1.40966	1.41374	1.41536	1.41556	1.41536	1.41475	1.41509	1.41512	1.41552	1.41564
313.15 K	1.40748	1.41175	1.41365	1.41402	1.41378	1.41335	1.41374	1.41388	1.4145	1.41422
318.15 K	1.4053	1.40976	1.41194	1.41248	1.4122	1.41195	1.41239	1.41264	1.41348	1.41306
323.15 K	1.40312	1.40777	1.41023	1.41094	1.41062	1.41055	1.41104	1.4114	1.41246	1.41175

CCCCCCCC[n+]1ccn(C)c1.F[P-](F)(F)(F)(F)F [1-octyl-3-methylimidazolium hexafluorophosphate] + C1CCOC1
refractive index
Details	x1 = 0.0767	x1 = 0.1791	x1 = 0.2783	x1 = 0.3996	x1 = 0.5198	x1 = 0.612	x1 = 0.6957	x1 = 0.7754	x1 = 0.8991	x1 = 1
293.15 K	1.41505	1.4205	1.42326	1.42412	1.42414	1.42411	1.42421	1.42432	1.42436	1.42441
298.15 K	1.41278	1.41848	1.42126	1.42242	1.42258	1.42272	1.42284	1.42306	1.42329	1.42312
303.15 K	1.41061	1.41646	1.41956	1.42076	1.42102	1.42123	1.42161	1.42189	1.42202	1.42171
308.15 K	1.40824	1.41452	1.41786	1.4191	1.41946	1.41974	1.42018	1.42042	1.42085	1.42029
313.15 K	1.40587	1.41284	1.41616	1.41744	1.4179	1.41825	1.41865	1.41915	1.41958	1.41888
318.15 K	1.4035	1.41116	1.41446	1.41578	1.41634	1.41676	1.41712	1.41788	1.41831	1.4175
323.15 K	1.40113	1.40948	1.41276	1.41412	1.41478	1.41527	1.41559	1.41661	1.41704	1.41601

CCCCn1cc[n+](C)c1.F[P-](F)(F)(F)(F)F [1-butyl-3-methylimidazolium hexafluorophosphate] + C1CCOC1
refractive index
Details	x1 = 0.0871	x1 = 0.1801	x1 = 0.2893	x1 = 0.3939	x1 = 0.4994	x1 = 0.5709	x1 = 0.7163	x1 = 0.8069	x1 = 0.9012	x1 = 1
293.15 K	1.41126	1.41369	1.41462	1.41441	1.41373	1.41332	1.41236	1.41205	1.41131	1.41068
298.15 K	1.40906	1.41157	1.41279	1.41273	1.41208	1.4117	1.41089	1.41059	1.41014	1.40943
303.15 K	1.40701	1.40957	1.41105	1.41113	1.41065	1.41025	1.40964	1.40935	1.40895	1.40818
308.15 K	1.40475	1.40747	1.40915	1.40938	1.4092	1.40877	1.40818	1.40793	1.40778	1.40693
313.15 K	1.40262	1.40554	1.40754	1.40784	1.40779	1.40748	1.40693	1.40681	1.40666	1.40567
318.15 K	1.40012	1.40345	1.40558	1.40611	1.40619	1.40595	1.40552	1.40541	1.40525	1.40443
323.15 K	1.39781	1.40139	1.40377	1.40455	1.40451	1.40452	1.40428	1.40425	1.40393	1.40312
